Experimental data published in ChEMBL document CHEMBL4184242, “Synthesis and antibacterial studies of teixobactin analogues with non-isostere substitution of enduracididine” (2018).
In brackets after ≈: the same amount, converted by molar mass.

Assays:
Staphylococcus aureus [1] = assay: Antibacterial activity against methicillin-susceptible Staphylococcus aureus ATCC 29213 by CLSI M100-S17 protocol based broth dilution method; type: functional
Staphylococcus aureus [2] = assay: Antibacterial activity against methicillin-resistant Staphylococcus aureus isolate SA1114 by CLSI M100-S17 protocol based broth dilution method; type: functional

Compound	MIC (Staphylococcus aureus [1]) [µg/mL]	MIC (Staphylococcus aureus [2]) [µg/mL]
CC[C@@H](C)[C@@H](NC(=O)[C@@H](CCC(N)=O)NC(=O)[C@H](CO)NC(=O)[C@@H](NC(=O)[C@@H](Cc1ccccc1)NC)[C@@H](C)CC)C(=O)N[C@H](C(=O)N[C@@H](CO)C(=O)N[C@H]1C(=O)N[C@@H](C)C(=O)N[C@@H](Cc2ccccc2)C(=O)N[C@@H]([C@@H](C)CC)C(=O)O[C@H]1C)[C@@H](C)CC	1 (≈ 0.809 µM)	4 (≈ 3.24 µM)
CC[C@@H](C)[C@@H](NC(=O)[C@@H](CCC(N)=O)NC(=O)[C@H](CO)NC(=O)[C@@H](NC(=O)[C@@H](Cc1ccccc1)NC)[C@@H](C)CC)C(=O)N[C@H](C(=O)N[C@@H](CO)C(=O)N[C@H]1C(=O)N[C@@H](C)C(=O)N[C@@H](C)C(=O)N[C@@H]([C@@H](C)CC)C(=O)O[C@H]1C)[C@@H](C)CC	2 (≈ 1.73 µM)	8 (≈ 6.9 µM)
CC[C@@H](C)[C@@H](NC(=O)[C@@H](CCC(N)=O)NC(=O)[C@H](CO)NC(=O)[C@@H](NC(=O)[C@@H](Cc1ccccc1)NC)[C@@H](C)CC)C(=O)N[C@H](C(=O)N[C@@H](CO)C(=O)N[C@H]1C(=O)N[C@@H](C)C(=O)N[C@@H](C(C)C)C(=O)N[C@@H]([C@@H](C)CC)C(=O)O[C@H]1C)[C@@H](C)CC	0.5 (≈ 0.421 µM)	2 (≈ 1.68 µM)
CC[C@@H](C)[C@@H](NC(=O)[C@@H](CCC(N)=O)NC(=O)[C@H](CO)NC(=O)[C@@H](NC(=O)[C@@H](Cc1ccccc1)NC)[C@@H](C)CC)C(=O)N[C@H](C(=O)N[C@@H](CO)C(=O)N[C@H]1C(=O)N[C@@H](C)C(=O)N[C@@H](CC(C)C)C(=O)N[C@@H]([C@@H](C)CC)C(=O)O[C@H]1C)[C@@H](C)CC	0.5 (≈ 0.416 µM)	2 (≈ 1.66 µM)
CC[C@@H](C)[C@@H](NC(=O)[C@@H](CCC(N)=O)NC(=O)[C@H](CO)NC(=O)[C@@H](NC(=O)[C@@H](Cc1ccccc1)NC)[C@@H](C)CC)C(=O)N[C@H](C(=O)N[C@@H](CO)C(=O)N[C@H]1C(=O)N[C@@H](C)C(=O)N[C@@H](CC(N)=O)C(=O)N[C@@H]([C@@H](C)CC)C(=O)O[C@H]1C)[C@@H](C)CC	8 (≈ 6.65 µM)	16 (≈ 13.3 µM)
CC[C@@H](C)[C@@H](NC(=O)[C@@H](CCC(N)=O)NC(=O)[C@H](CO)NC(=O)[C@@H](NC(=O)[C@@H](Cc1ccccc1)NC)[C@@H](C)CC)C(=O)N[C@H](C(=O)N[C@@H](CO)C(=O)N[C@H]1C(=O)N[C@@H](C)C(=O)N[C@@H](Cc2ccc(O)c([N+](=O)[O-])c2)C(=O)N[C@@H]([C@@H](C)CC)C(=O)O[C@H]1C)[C@@H](C)CC	1 (≈ 0.771 µM)	4 (≈ 3.09 µM)
CC[C@@H](C)[C@@H](NC(=O)[C@@H](CCC(N)=O)NC(=O)[C@H](CO)NC(=O)[C@@H](NC(=O)[C@@H](Cc1ccccc1)NC)[C@@H](C)CC)C(=O)N[C@H](C(=O)N[C@@H](CO)C(=O)N[C@H]1C(=O)N[C@@H](C)C(=O)N[C@@H]([C@@H](C)CC)C(=O)N[C@@H]([C@@H](C)CC)C(=O)O[C@H]1C)[C@@H](C)CC	0.5 (≈ 0.416 µM)	1 (≈ 0.832 µM)
CC[C@@H](C)[C@@H](NC(=O)[C@@H](CCC(N)=O)NC(=O)[C@H](CO)NC(=O)[C@@H](NC(=O)[C@@H](Cc1ccccc1)NC)[C@@H](C)CC)C(=O)N[C@H](C(=O)N[C@@H](CO)C(=O)N[C@H]1C(=O)N[C@@H](C)C(=O)NCC(=O)N[C@@H]([C@@H](C)CC)C(=O)O[C@H]1C)[C@@H](C)CC	2 (≈ 1.75 µM)	8 to 16 (≈ 6.98 to 14 µM)
CC[C@@H](C)[C@@H](NC(=O)[C@@H](CCC(N)=O)NC(=O)[C@H](CO)NC(=O)[C@@H](NC(=O)[C@@H](Cc1ccccc1)NC)[C@@H](C)CC)C(=O)N[C@H](C(=O)N[C@@H](CO)C(=O)N[C@H]1C(=O)N[C@@H](C)C(=O)N[C@@H](Cc2ccc(O)cc2)C(=O)N[C@@H]([C@@H](C)CC)C(=O)O[C@H]1C)[C@@H](C)CC	2 (≈ 1.6 µM)	8 (≈ 6.39 µM)
CC[C@@H](C)[C@@H](NC(=O)[C@@H](CCC(N)=O)NC(=O)[C@H](CO)NC(=O)[C@@H](NC(=O)[C@@H](Cc1ccccc1)NC)[C@@H](C)CC)C(=O)N[C@H](C(=O)N[C@@H](CO)C(=O)N[C@H]1C(=O)N[C@@H](C)C(=O)N[C@@H](Cc2ccc(F)cc2)C(=O)N[C@@H]([C@@H](C)CC)C(=O)O[C@H]1C)[C@@H](C)CC	0.5 (≈ 0.399 µM)	4 (≈ 3.19 µM)
CC[C@@H](C)[C@@H](NC(=O)[C@@H](CCC(N)=O)NC(=O)[C@H](CO)NC(=O)[C@@H](NC(=O)[C@@H](Cc1ccccc1)NC)[C@@H](C)CC)C(=O)N[C@H](C(=O)N[C@@H](CO)C(=O)N[C@H]1C(=O)N[C@@H](C)C(=O)N[C@@H](CCSC)C(=O)N[C@@H]([C@@H](C)CC)C(=O)O[C@H]1C)[C@@H](C)CC	0.25 (≈ 0.205 µM)	1 (≈ 0.82 µM)
CC[C@@H](C)[C@@H](NC(=O)[C@@H](CCC(N)=O)NC(=O)[C@H](CO)NC(=O)[C@@H](NC(=O)[C@@H](Cc1ccccc1)NC)[C@@H](C)CC)C(=O)N[C@H](C(=O)N[C@@H](CO)C(=O)N[C@H]1C(=O)N[C@@H](C)C(=O)N[C@@H]([C@@H](C)O)C(=O)N[C@@H]([C@@H](C)CC)C(=O)O[C@H]1C)[C@@H](C)CC	8 (≈ 6.73 µM)	16 (≈ 13.5 µM)
CC[C@@H](C)[C@@H](NC(=O)[C@@H](CCC(N)=O)NC(=O)[C@H](CO)NC(=O)[C@@H](NC(=O)[C@@H](Cc1ccccc1)NC)[C@@H](C)CC)C(=O)N[C@H](C(=O)N[C@@H](CO)C(=O)N[C@H]1C(=O)N[C@@H](C)C(=O)N[C@@H](Cc2ccc([N+](=O)[O-])cc2)C(=O)N[C@@H]([C@@H](C)CC)C(=O)O[C@H]1C)[C@@H](C)CC	0.5 (≈ 0.39 µM)	4 (≈ 3.12 µM)
CC[C@@H]1NC(=O)[C@H](C)NC(=O)[C@H](NC(=O)[C@H](CO)NC(=O)[C@@H](NC(=O)[C@H](NC(=O)[C@@H](CCC(N)=O)NC(=O)[C@H](CO)NC(=O)[C@@H](NC(=O)[C@@H](Cc2ccccc2)NC)[C@@H](C)CC)[C@H](C)CC)[C@@H](C)CC)[C@H](C)OC(=O)[C@H]([C@@H](C)CC)NC1=O	1 (≈ 0.852 µM)	4 (≈ 3.41 µM)
CC[C@@H](C)[C@@H](NC(=O)[C@@H](CCC(N)=O)NC(=O)[C@H](CO)NC(=O)[C@@H](NC(=O)[C@@H](Cc1ccccc1)NC)[C@@H](C)CC)C(=O)N[C@H](C(=O)N[C@@H](CO)C(=O)N[C@H]1C(=O)N[C@@H](C)C(=O)N[C@@H](Cc2ccc(Cl)cc2)C(=O)N[C@@H]([C@@H](C)CC)C(=O)O[C@H]1C)[C@@H](C)CC	1 (≈ 0.787 µM)	4 (≈ 3.15 µM)
CC[C@@H](C)[C@@H](NC(=O)[C@@H](CCC(N)=O)NC(=O)[C@H](CO)NC(=O)[C@@H](NC(=O)[C@@H](Cc1ccccc1)NC)[C@@H](C)CC)C(=O)N[C@H](C(=O)N[C@@H](CO)C(=O)N[C@H]1C(=O)N[C@@H](C)C(=O)N[C@@H](CCC(N)=O)C(=O)N[C@@H]([C@@H](C)CC)C(=O)O[C@H]1C)[C@@H](C)CC	16 (≈ 13.2 µM)	16 (≈ 13.2 µM)
CC[C@@H](C)[C@@H](NC(=O)[C@@H](CCC(N)=O)NC(=O)[C@H](CO)NC(=O)[C@@H](NC(=O)[C@@H](Cc1ccccc1)NC)[C@@H](C)CC)C(=O)N[C@H](C(=O)N[C@@H](CO)C(=O)N[C@H]1C(=O)N[C@@H](C)C(=O)N[C@@H](CC(=O)O)C(=O)N[C@@H]([C@@H](C)CC)C(=O)O[C@H]1C)[C@@H](C)CC	≥ 32	≥ 32
CC[C@@H](C)[C@@H](NC(=O)[C@@H](CCC(N)=O)NC(=O)[C@H](CO)NC(=O)[C@@H](NC(=O)[C@@H](Cc1ccccc1)NC)[C@@H](C)CC)C(=O)N[C@H](C(=O)N[C@@H](CO)C(=O)N[C@H]1C(=O)N[C@@H](C)C(=O)N2CCC[C@H]2C(=O)N[C@@H]([C@@H](C)CC)C(=O)O[C@H]1C)[C@@H](C)CC	≥ 32	≥ 32
CC[C@@H](C)[C@@H](NC(=O)[C@@H](CCC(N)=O)NC(=O)[C@H](CO)NC(=O)[C@@H](NC(=O)[C@@H](Cc1ccccc1)NC)[C@@H](C)CC)C(=O)N[C@H](C(=O)N[C@@H](CO)C(=O)N[C@H]1C(=O)N[C@@H](C)C(=O)N[C@@H](Cc2ccc(C)cc2)C(=O)N[C@@H]([C@@H](C)CC)C(=O)O[C@H]1C)[C@@H](C)CC	1 (≈ 0.8 µM)	≥ 32
CC[C@@H](C)[C@@H](NC(=O)[C@@H](CCC(N)=O)NC(=O)[C@H](CO)NC(=O)[C@@H](NC(=O)[C@@H](Cc1ccccc1)NC)[C@@H](C)CC)C(=O)N[C@H](C(=O)N[C@@H](CO)C(=O)N[C@H]1C(=O)N[C@@H](C)C(=O)N[C@@H](CCC(=O)O)C(=O)N[C@@H]([C@@H](C)CC)C(=O)O[C@H]1C)[C@@H](C)CC	≥ 32	≥ 32
CC[C@@H](C)[C@@H](NC(=O)[C@@H](CCC(N)=O)NC(=O)[C@H](CO)NC(=O)[C@@H](NC(=O)[C@@H](Cc1ccccc1)NC)[C@@H](C)CC)C(=O)N[C@H](C(=O)N[C@@H](CO)C(=O)N[C@H]1C(=O)N[C@@H](C)C(=O)N[C@@H](Cc2ccc(OC)cc2)C(=O)N[C@@H]([C@@H](C)CC)C(=O)O[C@H]1C)[C@@H](C)CC	1 (≈ 0.79 µM)	≥ 32
CC[C@@H](C)[C@@H](NC(=O)[C@@H](CCC(N)=O)NC(=O)[C@H](CO)NC(=O)[C@@H](NC(=O)[C@@H](Cc1ccccc1)NC)[C@@H](C)CC)C(=O)N[C@H](C(=O)N[C@@H](CO)C(=O)N[C@H]1C(=O)N[C@@H](C)C(=O)N[C@@H](CSC(C)(C)C)C(=O)N[C@@H]([C@@H](C)CC)C(=O)O[C@H]1C)[C@@H](C)CC	2 (≈ 1.6 µM)	4 (≈ 3.21 µM)
CC[C@@H](C)[C@@H](NC(=O)[C@@H](CCC(N)=O)NC(=O)[C@H](CO)NC(=O)[C@@H](NC(=O)[C@@H](Cc1ccccc1)NC)[C@@H](C)CC)C(=O)N[C@H](C(=O)N[C@@H](CO)C(=O)N[C@H]1C(=O)N[C@@H](C)C(=O)N[C@@H](Cc2c[nH]c3ccccc23)C(=O)N[C@@H]([C@@H](C)CC)C(=O)O[C@H]1C)[C@@H](C)CC	8 (≈ 6.28 µM)	8 to 16 (≈ 6.28 to 12.6 µM)
CC[C@@H](C)[C@@H](NC(=O)[C@@H](CCC(N)=O)NC(=O)[C@H](CO)NC(=O)[C@@H](NC(=O)[C@@H](Cc1ccccc1)NC)[C@@H](C)CC)C(=O)N[C@H](C(=O)N[C@@H](CO)C(=O)N[C@H]1C(=O)N[C@@H](C)C(=O)N[C@@H](CO)C(=O)N[C@@H]([C@@H](C)CC)C(=O)O[C@H]1C)[C@@H](C)CC	16 (≈ 13.6 µM)	16 (≈ 13.6 µM)
CC[C@@H](C)[C@@H](NC(=O)[C@@H](CCC(N)=O)NC(=O)[C@H](CO)NC(=O)[C@@H](NC(=O)[C@@H](Cc1ccccc1)NC)[C@@H](C)CC)C(=O)N[C@H](C(=O)N[C@@H](CO)C(=O)N[C@H]1C(=O)N[C@@H](C)C(=O)N[C@@H](Cc2ccc(Br)cc2)C(=O)N[C@@H]([C@@H](C)CC)C(=O)O[C@H]1C)[C@@H](C)CC	2 (≈ 1.52 µM)	≥ 32
